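Dose response: 5 concentrations. Exposure: 48 h. Format: 96-well plates. Endpoint: linear interpolation; highest concentration if not reached. Abbreviation: GI50, concentration required for 50% inhibition of growth.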 Calls of active or inactive are those of the source. Rule as the data show it: active = GI50 up to about 1.1 µM and inactive = higher.
Experiments:
Assay in all cases: inhibition of tumour cell growth, NCI panel, 48 h
OVCAR-5 = tested on: OVCAR-5
NCI-H23 = tested on: NCI-H23
SR = tested on: SR
SK-MEL-28 = tested on: SK-MEL-28
NCI/ADR-RES = tested on: NCI/ADR-RES
LOX IMVI = tested on: LOX IMVI
SNB-75 = tested on: SNB-75
BT-549 = tested on: BT-549
SK-MEL-2 = tested on: SK-MEL-2
MDA-MB-435 = tested on: MDA-MB-435
MDA-MB-231 = tested on: MDA-MB-231
UO-31 = tested on: UO-31
MOLT-4 = tested on: MOLT-4
NCI-H460 = tested on: NCI-H460
ACHN = tested on: ACHN
PC-3 = tested on: PC-3
UACC-257 = tested on: UACC-257
EKVX = tested on: EKVX
HCT-15 = tested on: HCT-15
HCT-116 = tested on: HCT-116
KM12 = tested on: KM12
DU-145 = tested on: DU-145
HOP-62 = tested on: HOP-62
NCI-H226 = tested on: NCI-H226
SN12C = tested on: SN12C
K562 = tested on: K562
MCF7 = tested on: MCF7
SF-295 = tested on: SF-295
M14 = tested on: M14
MDA-N = tested on: MDA-N
NCI-H522 = tested on: NCI-H522
A498 = tested on: A498
A549 = tested on: A549
HCC 2998 = tested on: HCC 2998
OVCAR-3 = tested on: OVCAR-3
U-251 = tested on: U-251
Hs-578T = tested on: Hs-578T
HL-60 = tested on: HL-60
T47D = tested on: T47D
Malme-3M = tested on: Malme-3M
OVCAR-8 = tested on: OVCAR-8
OVCAR-4 = tested on: OVCAR-4
HT-29 = tested on: HT-29
RPMI-8226 = tested on: RPMI-8226
TK-10 = tested on: TK-10
SNB-19 = tested on: SNB-19
SF-539 = tested on: SF-539
SW-620 = tested on: SW-620
CCRF-CEM = tested on: CCRF-CEM
SF-268 = tested on: SF-268
786-0 = tested on: 786-0
COLO 205 = tested on: COLO 205
RXF 393 = tested on: RXF 393
SK-MEL-5 = tested on: SK-MEL-5
IGROV-1 = tested on: IGROV-1
SK-OV-3 = tested on: SK-OV-3
UACC-62 = tested on: UACC-62

CC(=O)N1c2ccccc2C2=NN=C(N(C)C)SC21 (centres undefined)
GI50 (OVCAR-5): 4.24 µM (inactive) | GI50 (NCI-H23): 5.19 µM (inactive) | GI50 (SR): 3.28 µM (inactive) | GI50 (SK-MEL-28): 3.47 µM (inactive) | GI50 (NCI/ADR-RES): 2.75 µM (inactive) | GI50 (LOX IMVI): 2.1 µM (inactive) | GI50 (SNB-75): 13.6 µM (inactive) | GI50 (BT-549): 9.35 µM (inactive) | GI50 (SK-MEL-2): 2.18 µM (inactive) | GI50 (MDA-MB-435): 6.56 µM (inactive) | GI50 (MDA-MB-231): 1.89 µM (inactive) | GI50 (UO-31): 1.45 µM (inactive) | GI50 (MOLT-4): 3.09 µM (inactive) | GI50 (NCI-H460): 2.46 µM (inactive) | GI50 (ACHN): 2.54 µM (inactive) | GI50 (PC-3): 2.84 µM (inactive) | GI50 (UACC-257): 3.64 µM (inactive) | GI50 (EKVX): 2.75 µM (inactive) | GI50 (HCT-15): 0.838 µM | GI50 (HCT-116): 2.72 µM (inactive) | GI50 (KM12): 3.18 µM (inactive) | GI50 (DU-145): 1.58 µM (inactive) | GI50 (HOP-62): 3.8 µM (inactive) | GI50 (NCI-H226): 3.12 µM (inactive) | GI50 (SN12C): 2.08 µM (inactive) | GI50 (K562): 3.37 µM (inactive) | GI50 (MCF7): 4.06 µM (inactive) | GI50 (SF-295): 2.41 µM (inactive) | GI50 (M14): 1.84 µM (inactive) | GI50 (MDA-N): 3.33 µM (inactive) | GI50 (NCI-H522): 2.3 µM (inactive) | GI50 (A498): 3.17 µM (inactive) | GI50 (A549): 2.89 µM (inactive) | GI50 (HCC 2998): 2.72 µM (inactive) | GI50 (OVCAR-3): 3.05 µM (inactive) | GI50 (U-251): 1.67 µM (inactive) | GI50 (Hs-578T): 13.5 µM (inactive) | GI50 (HL-60): 2.14 µM (inactive) | GI50 (T47D): 3.52 µM (inactive) | GI50 (Malme-3M): 3.37 µM (inactive) | GI50 (OVCAR-8): 2.65 µM (inactive) | GI50 (OVCAR-4): 10.4 µM (inactive) | GI50 (HT-29): 4.86 µM (inactive) | GI50 (RPMI-8226): 5.96 µM (inactive) | GI50 (TK-10): 9.06 µM (inactive) | GI50 (SNB-19): 3.85 µM (inactive) | GI50 (SF-539): 3.48 µM (inactive) | GI50 (SW-620): 4.78 µM (inactive) | GI50 (CCRF-CEM): 2.1 µM (inactive) | GI50 (SF-268): 1.82 µM (inactive) | GI50 (786-0): 2.48 µM (inactive) | GI50 (COLO 205): 3.3 µM (inactive)

COc1cc2nc(-c3ccccc3)cc(O)c2c(OC)c1OC
GI50 (OVCAR-5): > 100 µM (inactive) | GI50 (NCI-H23): > 100 µM (inactive) | GI50 (SR): > 100 µM (inactive) | GI50 (SK-MEL-28): > 100 µM (inactive) | GI50 (NCI/ADR-RES): > 100 µM (inactive) | GI50 (LOX IMVI): > 100 µM (inactive) | GI50 (SNB-75): > 100 µM (inactive) | GI50 (BT-549): > 100 µM (inactive) | GI50 (SK-MEL-2): > 100 µM (inactive) | GI50 (MDA-MB-435): > 100 µM (inactive) | GI50 (MDA-MB-231): 61 µM (inactive) | GI50 (UO-31): 98.4 µM (inactive) | GI50 (MOLT-4): > 100 µM (inactive) | GI50 (NCI-H460): > 100 µM (inactive) | GI50 (ACHN): > 100 µM (inactive) | GI50 (PC-3): > 100 µM (inactive) | GI50 (UACC-257): > 100 µM (inactive) | GI50 (EKVX): > 100 µM (inactive) | GI50 (RXF 393): > 100 µM (inactive) | GI50 (HCT-15): > 100 µM | GI50 (HCT-116): > 100 µM (inactive) | GI50 (KM12): > 100 µM (inactive) | GI50 (DU-145): > 100 µM (inactive) | GI50 (HOP-62): > 100 µM (inactive) | GI50 (NCI-H226): > 100 µM (inactive) | GI50 (SN12C): > 100 µM (inactive) | GI50 (K562): > 100 µM (inactive) | GI50 (MCF7): 67.1 µM (inactive) | GI50 (SF-295): > 100 µM (inactive) | GI50 (M14): > 100 µM (inactive) | GI50 (MDA-N): > 100 µM (inactive) | GI50 (SK-MEL-5): > 100 µM (inactive) | GI50 (NCI-H522): > 100 µM (inactive) | GI50 (IGROV-1): > 100 µM (inactive) | GI50 (SK-OV-3): > 100 µM (inactive) | GI50 (A498): > 100 µM (inactive) | GI50 (A549): > 100 µM (inactive) | GI50 (HCC 2998): > 100 µM (inactive) | GI50 (OVCAR-3): > 100 µM (inactive) | GI50 (U-251): > 100 µM (inactive) | GI50 (Hs-578T): > 100 µM (inactive) | GI50 (HL-60): > 100 µM (inactive) | GI50 (T47D): 34.1 µM (inactive) | GI50 (Malme-3M): > 100 µM (inactive) | GI50 (OVCAR-8): > 100 µM (inactive) | GI50 (OVCAR-4): > 100 µM (inactive) | GI50 (HT-29): > 100 µM (inactive) | GI50 (RPMI-8226): > 100 µM (inactive) | GI50 (TK-10): > 100 µM (inactive) | GI50 (SNB-19): > 100 µM (inactive) | GI50 (SW-620): > 100 µM (inactive) | GI50 (CCRF-CEM): > 100 µM (inactive) | GI50 (SF-268): > 100 µM (inactive) | GI50 (UACC-62): > 100 µM (inactive) | GI50 (786-0): > 100 µM (inactive) | GI50 (COLO 205): > 100 µM (inactive)

Cc1nc(N)c(N2CCN(C#N)CC2)c(O)n1
GI50 (OVCAR-5): > 100 µM (inactive) | GI50 (NCI-H23): > 100 µM (inactive) | GI50 (SR): > 100 µM (inactive) | GI50 (SK-MEL-28): > 100 µM (inactive) | GI50 (NCI/ADR-RES): > 100 µM (inactive) | GI50 (LOX IMVI): > 100 µM (inactive) | GI50 (SNB-75): > 100 µM (inactive) | GI50 (BT-549): > 100 µM (inactive) | GI50 (SK-MEL-2): > 100 µM (inactive) | GI50 (MDA-MB-435): > 100 µM (inactive) | GI50 (MDA-MB-231): > 100 µM (inactive) | GI50 (UO-31): > 100 µM (inactive) | GI50 (MOLT-4): > 100 µM (inactive) | GI50 (NCI-H460): > 100 µM (inactive) | GI50 (ACHN): > 100 µM (inactive) | GI50 (PC-3): > 100 µM (inactive) | GI50 (UACC-257): > 100 µM (inactive) | GI50 (EKVX): > 100 µM (inactive) | GI50 (HCT-15): > 100 µM | GI50 (HCT-116): > 100 µM (inactive) | GI50 (KM12): > 100 µM (inactive) | GI50 (DU-145): > 100 µM (inactive) | GI50 (HOP-62): > 100 µM (inactive) | GI50 (NCI-H226): > 100 µM (inactive) | GI50 (SN12C): > 100 µM (inactive) | GI50 (K562): > 100 µM (inactive) | GI50 (MCF7): > 100 µM (inactive) | GI50 (SF-295): > 100 µM (inactive) | GI50 (M14): > 100 µM (inactive) | GI50 (MDA-N): > 100 µM (inactive) | GI50 (NCI-H522): > 100 µM (inactive) | GI50 (A498): > 100 µM (inactive) | GI50 (A549): > 100 µM (inactive) | GI50 (HCC 2998): > 100 µM (inactive) | GI50 (OVCAR-3): 28.8 µM (inactive) | GI50 (U-251): > 100 µM (inactive) | GI50 (Hs-578T): > 100 µM (inactive) | GI50 (HL-60): > 10 µM (inactive) | GI50 (T47D): > 100 µM (inactive) | GI50 (Malme-3M): > 100 µM (inactive) | GI50 (OVCAR-8): > 100 µM (inactive) | GI50 (HT-29): > 100 µM (inactive) | GI50 (RPMI-8226): > 100 µM (inactive) | GI50 (TK-10): > 100 µM (inactive) | GI50 (SNB-19): > 100 µM (inactive) | GI50 (SF-539): > 100 µM (inactive) | GI50 (SW-620): > 100 µM (inactive) | GI50 (CCRF-CEM): > 100 µM (inactive) | GI50 (SF-268): > 100 µM (inactive) | GI50 (786-0): > 100 µM (inactive) | GI50 (COLO 205): > 100 µM (inactive)

Reference: ChEMBL document CHEMBL1201862, “PubChem BioAssay data set” (2004)
